# Reference: ChEMBL document CHEMBL6087436, “The novel β-hairpin antimicrobial peptide D-G(RF)3 demonstrates exceptional antibacterial efficacy” (Eur J Med Chem, 2025)
# Calls of active or inactive are those of the source. The rule behind the calls is not given here. Where a SMILES comes first, the peptide text is derived from it. Bridges are numbered along the chain shown (N, C = ends). [ ]: non-standard residue; d: D form. The star is where a group is joined. Ileψ(thiazoline)Cys = CC[C@H](C)[C@H](N)C1=N[C@H](C(=O)*)CS1; dOrn = NCCC[C@@H](N)C(=O)O
# Columns and labels:
# [1] = Retention time of the compound by RP-HPLC analysis; format: physicochemical
# Staphylococcus aureus = test: Antibacterial activity against Staphylococcus aureus ATCC 25923 assessed as inhibition of bacterial growth incubated for 18 hrs by microbroth dilution assay; format: functional
# Bacillus subtilis = test: Antibacterial activity against Bacillus subtilis ATCC 23857 assessed as inhibition of bacterial growth incubated for 18 hrs by microbroth dilution assay; format: functional
# [2] = test system: Staphylococcus epidermidis; test: Antibacterial activity against Staphylococcus epidermidis ATCC 12228 assessed as inhibition of bacterial growth incubated for 18 hrs by microbroth dilution assay; format: functional
# Klebsiella pneumoniae = test: Antibacterial activity against Klebsiella pneumoniae ATCC 700603 assessed as inhibition of bacterial growth incubated for 18 hrs by microbroth dilution assay; format: functional
# Escherichia coli = test: Antibacterial activity against Escherichia coli ATCC 25922 assessed as inhibition of bacterial growth incubated for 18 hrs by microbroth dilution assay; format: functional
# Pseudomonas aeruginosa [3] = test: Antibacterial activity against Pseudomonas aeruginosa ATCC 27853 assessed as inhibition of bacterial growth incubated for 18 hrs by microbroth dilution assay; format: functional
# [4] = Hemolytic activity in Kunming mouse erythrocytes assessed as hemolysis incubated for 1 hr by multimode reader analysis; format: toxicity, cell-based; details: erythrocyte
# Pseudomonas aeruginosa [5] = test: Induction of drug resistance in Pseudomonas aeruginosa ATCC 27853 assessed as fold increase in MIC incubated for 24 hrs and measured under 40 passages; format: functional
# Cell membrane [6] = test: Induction of cell membrane permeability in Staphylococcus aureus assessed as bacterial dissolve at 2 times MIC by SEM analysis; format: subcellular
# [7] = Hemolytic activity in Kunming mouse erythrocytes assessed as hemolytic rate at 256 uM incubated for 1 hr by multimode reader analysis relative to control; format: toxicity, cell-based, Erythrocyte; details: read-out: Activity
# Cell membrane [8] = test: Induction of Cytoplasmic membrane depolarization in Staphylococcus aureus at 3.75 uM measured for every 10 mins by DiSC3(5) dye based fluorescence method
SMILES,Retention_time [1] [min],MIC (Staphylococcus aureus) [µM],MIC (Bacillus subtilis) [µM],MIC [2] [µM],MIC (Klebsiella pneumoniae) [µM],MIC (Escherichia coli) [µM],MIC (Pseudomonas aeruginosa [3]) [µM],MHC10 [4] [µM],fold change (FC) (Pseudomonas aeruginosa [5]),Activity (Cell membrane [6]),"hemolysis at 1 h, 256 µM [7] [%]",Activity (Cell membrane [8])
N=C(N)NCCC[C@H](NC(=O)CNC(=O)[C@H]1CCCN1C(=O)[C@H](CCCNC(=N)N)NC(=O)[C@H](Cc1ccccc1)NC(=O)[C@H](CCCNC(=N)N)NC(=O)[C@@H](N)Cc1ccccc1)C(=O)N[C@@H](Cc1ccccc1)C(=O)N[C@@H](CCCNC(=N)N)C(=O)N[C@@H](Cc1ccccc1)C(N)=O,13.555,32,8,16,> 128,64,4,> 256,,,,
CO[C@H]1/C=C/O[C@@]2(C)Oc3c(C)c(O)c4c(O)c(c(/C=N/N5CCN(C)CC5)c(O)c4c3C2=O)NC(=O)/C(C)=C\C=C\[C@H](C)[C@H](O)[C@@H](C)[C@@H](O)[C@@H](C)[C@H](OC(C)=O)[C@@H]1C [RIFAMPIN],,< 1,< 1,< 1,64,16,32,,,,,
NCCCC[C@H](NC(=O)CNC(=O)[C@H]1CCCN1C(=O)[C@H](CCCCN)NC(=O)[C@H](Cc1c[nH]c2ccccc12)NC(=O)[C@H](CCCCN)NC(=O)[C@H](Cc1c[nH]c2ccccc12)NC(=O)[C@H](CCCCN)NC(=O)[C@@H](N)Cc1c[nH]c2ccccc12)C(=O)N[C@@H](Cc1c[nH]c2ccccc12)C(=O)N[C@@H](CCCCN)C(=O)N[C@@H](Cc1c[nH]c2ccccc12)C(=O)N[C@@H](CCCCN)C(=O)N[C@@H](Cc1c[nH]c2ccccc12)C(N)=O (H-WKWKWK[dP]GKWKWKW-NH2),14.49,8,2,4,16,8,4,> 256,,,,
N=C(N)NCCC[C@H](NC(=O)[C@H](Cc1ccccc1)NC(=O)[C@H](CCCNC(=N)N)NC(=O)[C@H](Cc1ccccc1)NC(=O)[C@H](CCCNC(=N)N)NC(=O)CNC(=O)[C@H]1CCCN1C(=O)[C@H](CCCNC(=N)N)NC(=O)[C@H](Cc1ccccc1)NC(=O)[C@H](CCCNC(=N)N)NC(=O)[C@H](Cc1ccccc1)NC(=O)[C@@H](N)CCCNC(=N)N)C(N)=O,12.628,16,4,4,16,8,16,> 256,,,,
O=C(O)c1cn(C2CC2)c2cc(N3CCNCC3)c(F)cc2c1=O [CIPROFLOXACIN],,8,2,8,8,< 1,2,,>128,Active,,
NCCCC[C@H](NC(=O)CNC(=O)[C@H]1CCCN1C(=O)[C@H](CCCCN)NC(=O)[C@H](Cc1c[nH]c2ccccc12)NC(=O)[C@H](CCCCN)NC(=O)[C@@H](N)Cc1c[nH]c2ccccc12)C(=O)N[C@@H](Cc1c[nH]c2ccccc12)C(=O)N[C@@H](CCCCN)C(=O)N[C@@H](Cc1c[nH]c2ccccc12)C(N)=O (H-WKWK[dP]GKWKW-NH2),13.817,64,8,8,> 128,64,8,> 256,,,,
NCCCC[C@H](NC(=O)[C@H](Cc1c[nH]c2ccccc12)NC(=O)[C@H](CCCCN)NC(=O)[C@H](Cc1c[nH]c2ccccc12)NC(=O)[C@H](CCCCN)NC(=O)CNC(=O)[C@H]1CCCN1C(=O)[C@H](CCCCN)NC(=O)[C@H](Cc1c[nH]c2ccccc12)NC(=O)[C@H](CCCCN)NC(=O)[C@H](Cc1c[nH]c2ccccc12)NC(=O)[C@@H](N)CCCCN)C(N)=O,12.66,32,2,4,64,16,32,> 256,,,,
C[C@@H](O)[C@H]1C(=O)N2C(C(=O)O)=C(SCCNC=N)C[C@H]12 [IMIPENEM ANHYDROUS],,< 1,< 1,< 1,< 1,< 1,16,,,,,
CC[C@H](C)[C@H](N)C1=N[C@H](C(=O)N[C@@H](CC(C)C)C(=O)N[C@H](CCC(=O)O)C(=O)N[C@H](C(=O)N[C@H]2CCCCNC(=O)[C@H](CC(N)=O)NC(=O)[C@@H](CC(=O)O)NC(=O)[C@H](Cc3cnc[nH]3)NC(=O)[C@@H](Cc3ccccc3)NC(=O)[C@H]([C@@H](C)CC)NC(=O)[C@@H](CCCN)NC2=O)[C@@H](C)CC)CS1 [BACITRACIN] ({Ileψ(thiazoline)Cys}-L[dE]IK[dOrn]I[dF]H[dD]N; lactam 4-C),,32,> 128,16,> 128,> 128,> 128,,,,,
NC[C@H]1O[C@H](O[C@H]2[C@H](O)[C@@H](O[C@H]3O[C@H](CO)[C@@H](O)[C@H](N)[C@H]3O)[C@H](N)C[C@@H]2N)[C@H](O)[C@@H](O)[C@@H]1O [KANAMYCIN],,< 1,< 1,> 128,64,8,> 128,,,,,
CC[C@H](C)[C@H](N)C(=O)N[C@@H](CCCNC(=N)N)C(=O)N[C@H](C(=O)N[C@@H](CCCNC(=N)N)C(=O)N[C@H](C(=O)N[C@@H](CCCNC(=N)N)C(=O)N1CCC[C@@H]1C(=O)NCC(=O)N[C@@H](CCCNC(=N)N)C(=O)N[C@H](C(=O)N[C@@H](CCCNC(=N)N)C(=O)N[C@H](C(=O)N[C@@H](CCCNC(=N)N)C(=O)N[C@H](C(N)=O)[C@@H](C)CC)[C@@H](C)CC)[C@@H](C)CC)[C@@H](C)CC)[C@@H](C)CC,13.442,8,2,8,16,16,4,512,,,4.1,
CC[C@H](C)[C@H](NC(=O)[C@H](CCCNC(=N)N)NC(=O)[C@@H](NC(=O)[C@H](CCCNC(=N)N)NC(=O)CNC(=O)[C@H]1CCCN1C(=O)[C@H](CCCNC(=N)N)NC(=O)[C@@H](NC(=O)[C@H](CCCNC(=N)N)NC(=O)[C@@H](NC(=O)[C@@H](N)CCCNC(=N)N)[C@@H](C)CC)[C@@H](C)CC)[C@@H](C)CC)C(=O)N[C@@H](CCCNC(=N)N)C(N)=O,11.367,32,4,8,32,16,16,> 256,,,,
CC(C)[C@@H]1NC(=O)[C@H](C)OC(=O)[C@@H](C(C)C)NC(=O)[C@@H](C(C)C)OC(=O)[C@H](C(C)C)NC(=O)[C@H](C)OC(=O)[C@@H](C(C)C)NC(=O)[C@@H](C(C)C)OC(=O)[C@H](C(C)C)NC(=O)[C@H](C)OC(=O)[C@@H](C(C)C)NC(=O)[C@@H](C(C)C)OC1=O,,,,,,,,,,,,Active
CC[C@H](C)[C@H](N)C(=O)N[C@@H](CCCNC(=N)N)C(=O)N[C@H](C(=O)N[C@@H](CCCNC(=N)N)C(=O)N1CCC[C@@H]1C(=O)NCC(=O)N[C@@H](CCCNC(=N)N)C(=O)N[C@H](C(=O)N[C@@H](CCCNC(=N)N)C(=O)N[C@H](C(N)=O)[C@@H](C)CC)[C@@H](C)CC)[C@@H](C)CC,12.103,128,32,64,> 128,128,128,> 256,,,,
